According to patent US20190352341A1, “MODIFIED PEPTIDES AND THEIR USE FOR TREATING SYSTEMIC LUPUS ERYTHEMATOSUS” (IMMUPHARMA FRANCE SA, priority 2018, published 2019):
Square brackets hold non-standard residues; d marks the D form. Peptide text beside a SMILES is read from it. Met(O) = CS(=O)CC[C@H](N)C(=O)O; pS = N[C@@H](COP(=O)(O)O)C(=O)O

Columns and labels:
[1] = Stability of the peptides at 37° C. (HPLC peak area); assay type: physicochemical; details: for 95% of stability (predicted): time to 95% from linear equation; for Stability (%) Linear equation: slope: y = stability %, x = days; for Stability (%): 10% mannitol
Description: The stability of the peptide SEQ ID NO: 1 in which the serine at position 10 is phosphorylated and the methionine at position 4 is oxydized (P140(MO)), and the peptide SEQ ID NO: 1 in which the serine at position 10 is phosphorylated (P140) was measured at 37° C., in a solution of 10% (v/v) mannitol. For each peptide, 3 concentrations have been tested: 200, 100 and 50 μg/mL.
At the indicated time, the integrity of P140 and P140(MO) peptides was measured in saline by high-performance liquid chromatography from the area of the peak corresponding to the intact peptide.
Stability is measured by using the HPLC peak surface.

[2] = test system: MRL/lpr mice; test: Survival analysis in MRL/lpr mice; assay type: in vivo, mouse; details: female MRL/lpr mice, peptide intravenously from five weeks of age; NaCl control 25 weeks
Description: It has been determined that this mouse strain carries a mutation in the fas gene. Also, the MRL/lpr is a useful model to study behavioural and cognitive deficits found in autoimmune diseases and the efficacy of immunosuppressive agents [Monneaux et al., 2003, Eur. J. Immunol. 33, 287-296].
Five-week-old female MRL/lpr mice received P140 or peptide P140(MO) intravenously as described (Monneaux et al., 2003, Eur. J. Immunol. 33, 287-296). All experimental protocols were carried out with the approval of the local Institutional Animal Care and Use Committee (CREMEAS). As control, mice were injected with NaCl.
Twenty mice were used for each peptide or NaCl.
(§1) Statistical tests were performed using GraphPad Prism version 5.0. The two-way ANOVA test was used to analyze statistical significance of proteinuria differences between control and peptide-treated groups of mice. Survival of control and P140 analogue-treated female MRL/lpr mice was analyzed by the Kaplan-Meier method, and the significance of differences was determined by the log-rank test. For the other variables, statistical significance was assessed using the Student's t-test. p values less than 0.05 were considered significant.

[3] = test system: MRL/lpr mice; test: Proteinuria analysis in MRL/lpr mice; assay type: in vivo, mouse; details: Albustix score, compared to the untreated mice
Description: Proteinuria of the above mice was measured in fresh urine using Albustix (Bayer Diagnostics) and was semi-quantitatively estimated according to a […] recommended by the manufacturer (no proteinuria=0; traces=1; 1+=2; 2+=3; 3+=4; 4+=5).
as §1

[4] = test system: MRL/lpr mice; test: Cellularity analysis (peripheral blood) in MRL/lpr mice; assay type: in vivo, mouse; details: 100 μg/100 μL, 5 days after unique injection
Description: MRL/lpr mice were injected with 100 μg/100 μL of P140 or P140(MO) and cellularity (peripheral blood) was studied 5 days after this unique injection. The count includes all the leucocytes. In view of the low number of tested mice, a non parametric statistical test has been realised Mann-Whitney).

[5] = biological target: T1, HSC70 protein (Bos taurus, UniProt P19120); test: Affinity of the peptides for HSC70 protein (BIAcore); assay type: binding, bovine
T1 construct: purchased Stressgen
T1 sequence (P19120 whole entry): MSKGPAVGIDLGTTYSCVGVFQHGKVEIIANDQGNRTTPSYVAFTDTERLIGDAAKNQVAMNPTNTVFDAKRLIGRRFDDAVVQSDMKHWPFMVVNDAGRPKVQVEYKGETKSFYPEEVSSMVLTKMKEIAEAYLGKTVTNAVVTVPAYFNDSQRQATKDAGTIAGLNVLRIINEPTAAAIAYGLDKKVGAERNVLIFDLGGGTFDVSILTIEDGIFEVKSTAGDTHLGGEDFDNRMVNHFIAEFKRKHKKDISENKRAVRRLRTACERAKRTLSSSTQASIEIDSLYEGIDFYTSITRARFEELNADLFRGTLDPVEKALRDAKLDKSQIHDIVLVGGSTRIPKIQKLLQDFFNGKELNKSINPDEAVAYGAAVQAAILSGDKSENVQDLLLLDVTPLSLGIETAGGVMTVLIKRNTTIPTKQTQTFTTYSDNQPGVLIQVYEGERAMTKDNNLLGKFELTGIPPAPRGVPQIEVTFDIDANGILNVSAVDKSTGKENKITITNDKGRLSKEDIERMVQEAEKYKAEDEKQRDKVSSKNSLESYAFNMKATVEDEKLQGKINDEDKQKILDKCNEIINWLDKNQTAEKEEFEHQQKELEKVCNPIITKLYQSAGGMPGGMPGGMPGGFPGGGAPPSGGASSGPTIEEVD
Description: BIAcore 3000 system (Biacore AB) was used to evaluate the binding of P140 peptides to HSC70 protein (Page et al., 2009, and 2011). Sensor chip CMS, surfactant P20, amine coupling kit containing N-hydroxysuccinimide (NHS) and N-ethyl-N′-dimethylaminopropyl carbodiimide (EDC), 2-(2-pyridinyldithio)ethaneamine (PDEA) and ethanolamine were from Biacore AB. Biosensor assays were performed with HBS-EP buffer as running buffer (10 mM HEPES, 150 mM NaCl, 3 mM EDTA, 0.005% surfactant P20, pH 7.4). The compounds were diluted in the running buffer. The sensor chip surface was regenerated after each experiment by injecting 10 μL of 10 mM HCl. Recombinant bovine HSC70 (Stressgen) was immobilized on flow cells of a CM5 sensor chip through its thiol groups using 35 μL PDEA in 50 mM borate buffer, pH 8.3 on the NHS/EDC-activated matrix. Then, 35 μL of HSC70 (100 μg/mL in formate buffer, pH 4.3) were injected until a response of 13,000 response units (RU) corresponding to 13 ng/mm^2 of HSC70 was immobilized. Twenty μL of a 50 mM cysteine/1 M NaCl solution was used to saturate unoccupied sites on the chip. The direct binding measurement of P140 peptides to HSC70 was carried out at 25° C. with a constant flow rate of 20 μL/min. P140 peptide and analogues were injected in the flux at different concentrations for 3 min, followed by a dissociation phase of 3 min. The kinetic parameters were calculated using the BIAeval 3.1 software on a personal computer. Analysis was performed using the simple 1:1 Langmuir binding model. The specific binding profiles were obtained after subtracting the response signal from the control empty channel and from blank-buffer injection. The fitting to each model was judged by the χ^2 value and randomness of residue distribution compared to the theoretical model.

[6] = BIAcore, 25° C., 1:1 Langmuir model, global fit

CC[C@H](C)[C@H](NC(=O)[C@H](Cc1ccccc1)NC(=O)[C@H](C)NC(=O)[C@H](Cc1ccc(O)cc1)NC(=O)CNC(=O)[C@H](CCCNC(=N)N)NC(=O)[C@@H]1CCCN1C(=O)[C@H](CCCCN)NC(=O)CNC(=O)[C@H](COP(=O)(O)O)NC(=O)[C@H](CCCNC(=N)N)NC(=O)[C@H](CCCCN)NC(=O)[C@H](CO)NC(=O)[C@H](Cc1ccc(O)cc1)NC(=O)[C@@H](NC(=O)[C@H](CC[S+](C)[O-])NC(=O)[C@H](Cc1c[nH]cn1)NC(=O)[C@@H](NC(=O)[C@@H](N)CCCNC(=N)N)[C@@H](C)CC)C(C)C)C(=O)N[C@@H](CCC(=O)O)C(=O)N[C@@H](Cc1ccc(O)cc1)C(=O)O (stereo partly shown) [P140(MO), RIHM(O)VYSKRS(PO3H2)GKPRGYAFIEY] (H-RIH[Met(O)]VYSKR[pS]GKPRGYAFIEY-OH)
Stability (%) Linear equation: intercept ([1]; 50 μg/mL): 99.677 | 95% of stability (predicted) ([1]; 50 μg/mL): 2 years | Stability (%) Linear equation: slope ([1]; 50 μg/mL): y = −0.0064x + | Stability (%) Linear equation: intercept ([1]; 100 μg/mL): 100.11 | 95% of stability (predicted) ([1]; 100 μg/mL): 2 years + | Stability (%) Linear equation: slope ([1]; 100 μg/mL): y = −0.0064x + | 95% of stability (predicted) ([1]; 200 μg/mL): ∞ | Stability (%) ([1]; 50 μg/mL, day 0): 100% | Stability (%) ([1]; 50 μg/mL, day 20): 100% | Stability (%) ([1]; 50 μg/mL, day 40): 100% | Stability (%) ([1]; 50 μg/mL, day 100): 99.4% | Stability (%) ([1]; 100 μg/mL, day 0): 100% | Stability (%) ([1]; 100 μg/mL, day 20): 99.1% | Stability (%) ([1]; 100 μg/mL, day 40): 99.5% | Stability (%) ([1]; 100 μg/mL, day 100): 99.1% | Stability (%) ([1]; 200 μg/mL, day 0): 100% | Stability (%) ([1]; 200 μg/mL, day 20): 100% | Stability (%) ([1]; 200 μg/mL, day 40): 100% | Stability (%) ([1]; 200 μg/mL, day 100): 100% | Median survival of mice [2]: > 40 weeks | Proteinuria [3]: less important and appears lately | Peripheral hypercellularity (leucocytes in peripheral blood) [4]: decrease peripheral hypercellularity | Rmax ([5]; BIAcore, 25° C., 1:1 Langmuir model): 39 RU | KA [5, 6]: 524000 M⁻¹ | kd [5, 6]: 0.0022 s⁻¹ | RI ([5]; peptide 1.56 μM): 14 RU | Req ([5]; peptide 1.56 μM): 17.6 RU | kobs ([5]; peptide 1.56 μM): 0.004 s⁻¹ | RI ([5]; peptide 3.12 μM): 18.7 RU | Req ([5]; peptide 3.12 μM): 242 RU | kobs ([5]; peptide 3.12 μM): 0.0058 s⁻¹ | RI ([5]; peptide 6.25 μM): 25.9 RU | Req ([5]; peptide 6.25 μM): 29.9 RU | kobs ([5]; peptide 6.25 μM): 0.0094 s⁻¹ | RI ([5]; peptide 12.5 μM): 36.9 RU | Req ([5]; peptide 12.5 μM): 33.9 RU | kobs ([5]; peptide 12.5 μM): 0.0166 s⁻¹ | RI ([5]; peptide 25 μM): 53.4 RU | Req ([5]; peptide 25 μM): 36.3 RU | kobs ([5]; peptide 25 μM): 0.031 s⁻¹
